Data as given in ChEMBL document CHEMBL3352097, “Small molecule inhibitors targeting activator protein 1 (AP-1)” (J Med Chem, 2014).
Bridge positions count the residues as written; N and C are the ends. Peptide text beside a SMILES is read from it.

Key:
Transcription factor AP1 [1] = biological target: T1, Transcription factor AP1 (Homo sapiens, UniProt P01100+P05412); assay: Inhibition of Fos-Jun dimer formation (unknown origin) by EMSA method; format: protein-complex assay
Transcription factor Jun [2] = biological target: T2, Transcription factor Jun (Homo sapiens, UniProt P05412); assay: Inhibition of AP-1-mediated transcriptional activation in HEK293 cells by luciferase reporter gene assay; format: cell-based
Transcription factor Jun [3] = biological target: T2, Transcription factor Jun; assay: Inhibition of AP-1-mediated transcriptional activation in human HeLa cells at 10 ug/ml; format: cell-based
Transcription factor Jun [4] = biological target: T2, Transcription factor Jun; assay: Inhibition of AP-1-mediated transcriptional activation in human HeLa cells at 1 ug/ml; format: cell-based
Transcription factor Jun [5] = biological target: T2, Transcription factor Jun; assay: Inhibition of AP-1 bZIP domain DNA binding activity (unknown origin) by ELISA
Transcription factor Jun [6] = biological target: T2, Transcription factor Jun; assay: Inhibition of AP-1 (unknown origin) expressed in TPA-stimulated mouse NIH3T3 cells by luciferase reporter gene assay; format: cell-based
Transcription factor Jun [7] = biological target: T2, Transcription factor Jun; assay: Inhibition of AP-1-mediated transcriptional activation in human Jurkat cells by luciferase reporter gene assay; format: cell-based
[8] = biological target: Nuclear factor NF-kappa-B complex (Homo sapiens, UniProt Q00653+P19838+Q04206); assay: Inhibition of NF-kappaB-mediated transcriptional activation in human Jurkat cells by luciferase reporter gene assay; format: cell-based
Transcription factor Jun [9] = biological target: T2, Transcription factor Jun; assay: Inhibition of AP-1 (unknown origin) by FRET assay
Transcription factor Jun [10] = biological target: T2, Transcription factor Jun; assay: Inhibition of UVB-induced AP-1 activation (unknown origin) by cell-based assay
[11] = biological target: T3, Retinoic acid receptor gamma (Homo sapiens, UniProt P13631); assay: Activity at RARgamma (unknown origin)
T3 sequence (P13631 whole entry): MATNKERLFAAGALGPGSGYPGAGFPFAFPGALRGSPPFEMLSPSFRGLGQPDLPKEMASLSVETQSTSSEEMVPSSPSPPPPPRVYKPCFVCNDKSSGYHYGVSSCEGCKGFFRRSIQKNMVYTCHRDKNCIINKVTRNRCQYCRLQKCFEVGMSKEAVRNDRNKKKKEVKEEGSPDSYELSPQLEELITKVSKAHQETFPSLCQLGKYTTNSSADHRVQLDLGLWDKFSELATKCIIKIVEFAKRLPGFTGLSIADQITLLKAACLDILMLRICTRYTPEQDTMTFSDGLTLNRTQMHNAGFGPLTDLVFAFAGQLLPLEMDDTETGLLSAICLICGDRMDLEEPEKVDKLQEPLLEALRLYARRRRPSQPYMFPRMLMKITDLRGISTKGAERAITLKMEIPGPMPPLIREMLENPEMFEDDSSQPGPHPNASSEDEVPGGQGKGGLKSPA

[12] = biological target: T4, Retinoic acid receptor alpha (Homo sapiens, UniProt P10276); assay: Activity at RARalpha (unknown origin)
T4 sequence (P10276 whole entry): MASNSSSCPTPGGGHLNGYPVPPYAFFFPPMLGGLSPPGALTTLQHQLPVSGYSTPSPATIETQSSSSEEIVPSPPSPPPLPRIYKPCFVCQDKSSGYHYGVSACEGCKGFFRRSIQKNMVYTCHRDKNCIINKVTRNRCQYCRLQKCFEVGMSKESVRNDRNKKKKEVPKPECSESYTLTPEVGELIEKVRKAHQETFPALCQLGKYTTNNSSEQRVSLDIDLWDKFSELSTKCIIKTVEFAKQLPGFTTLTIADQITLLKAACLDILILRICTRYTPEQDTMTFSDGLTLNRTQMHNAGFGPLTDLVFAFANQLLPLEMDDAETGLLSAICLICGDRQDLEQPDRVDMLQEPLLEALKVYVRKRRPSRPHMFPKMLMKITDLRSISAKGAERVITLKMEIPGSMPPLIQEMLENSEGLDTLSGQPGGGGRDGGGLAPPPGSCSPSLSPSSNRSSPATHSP

[13] = biological target: T5, Retinoic acid receptor beta (Homo sapiens, UniProt P10826); assay: Activity at RARbeta (unknown origin)
T5 sequence (P10826 whole entry): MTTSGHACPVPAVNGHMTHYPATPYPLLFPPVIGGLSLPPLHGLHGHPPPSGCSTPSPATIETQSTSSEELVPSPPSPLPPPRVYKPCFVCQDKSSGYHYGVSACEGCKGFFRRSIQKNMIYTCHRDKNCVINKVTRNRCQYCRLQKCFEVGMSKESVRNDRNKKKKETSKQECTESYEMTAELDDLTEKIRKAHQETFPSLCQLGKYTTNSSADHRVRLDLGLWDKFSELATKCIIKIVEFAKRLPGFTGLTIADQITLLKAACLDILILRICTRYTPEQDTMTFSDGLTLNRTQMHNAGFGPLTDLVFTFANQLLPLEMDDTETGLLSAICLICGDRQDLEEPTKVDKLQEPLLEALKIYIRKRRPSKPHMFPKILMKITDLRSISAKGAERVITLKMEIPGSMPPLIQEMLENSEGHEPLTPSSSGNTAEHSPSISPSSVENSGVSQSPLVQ

[14] = biological target: T6, Retinoic acid receptor RXR-alpha (Homo sapiens, UniProt P19793); assay: Activity at RXRalpha (unknown origin)
T6 sequence (P19793 whole entry): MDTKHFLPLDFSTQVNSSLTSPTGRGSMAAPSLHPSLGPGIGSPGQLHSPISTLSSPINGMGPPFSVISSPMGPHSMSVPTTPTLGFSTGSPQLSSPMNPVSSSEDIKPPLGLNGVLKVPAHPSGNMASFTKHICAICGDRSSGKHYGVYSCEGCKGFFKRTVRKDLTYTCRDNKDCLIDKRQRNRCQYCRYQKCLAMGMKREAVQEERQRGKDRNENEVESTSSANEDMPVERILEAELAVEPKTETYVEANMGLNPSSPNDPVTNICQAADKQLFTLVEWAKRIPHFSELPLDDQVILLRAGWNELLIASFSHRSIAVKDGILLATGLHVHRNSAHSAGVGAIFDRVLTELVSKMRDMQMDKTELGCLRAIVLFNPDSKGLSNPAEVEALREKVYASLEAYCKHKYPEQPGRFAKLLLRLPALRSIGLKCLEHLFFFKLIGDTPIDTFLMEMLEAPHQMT

Rattus norvegicus [15] = species on record: Rattus norvegicus; assay: Antiinflammatory activity in adjuvant-induced arthritis rat model assessed as reduction in swelling in noninjected foot; format: functional
Transcription factor Jun [16] = biological target: Transcription factor Jun (Rattus norvegicus, UniProt P17325); assay: Inhibition of AP-1-mediated collagenase production in IL1alpha-stimulated Lewis rat synovial cells
Transcription factor Jun [17] = biological target: T2, Transcription factor Jun; assay: Inhibition of AP-1 (unknown origin) binding to AP-1 oligonucleotide by gel shift assay
Transcription factor AP1 [18] = biological target: T1, Transcription factor AP1; assay: Inhibition of Fos-Jun dimer formation (unknown origin); format: protein-complex assay
Gallus gallus = species on record: Gallus gallus; assay: Antiangiogenic activity in chicken embryo assessed as inhibition of neovascularization at 10 ug; format: functional
Rattus norvegicus [19] = assay: Antiinflammatory activity in carrageenan injection-induced rat inflammation model assessed as inhibition of rat paw edema; format: functional

Chain of Nuclear factor NF-kappa-B complex (P19838 1-433 limits assumed): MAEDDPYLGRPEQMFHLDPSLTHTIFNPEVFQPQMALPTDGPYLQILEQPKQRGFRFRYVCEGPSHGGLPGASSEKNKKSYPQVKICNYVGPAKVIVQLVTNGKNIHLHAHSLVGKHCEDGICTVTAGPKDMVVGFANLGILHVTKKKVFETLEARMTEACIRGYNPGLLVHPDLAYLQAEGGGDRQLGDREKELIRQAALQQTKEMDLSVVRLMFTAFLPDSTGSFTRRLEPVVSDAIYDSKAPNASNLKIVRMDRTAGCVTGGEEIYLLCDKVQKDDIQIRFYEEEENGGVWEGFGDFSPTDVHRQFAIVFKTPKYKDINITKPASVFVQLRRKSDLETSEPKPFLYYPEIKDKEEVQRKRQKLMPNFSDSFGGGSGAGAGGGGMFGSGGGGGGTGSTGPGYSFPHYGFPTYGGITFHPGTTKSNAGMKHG
Chain of Nuclear factor NF-kappa-B complex (Q00653 1-454 limits assumed): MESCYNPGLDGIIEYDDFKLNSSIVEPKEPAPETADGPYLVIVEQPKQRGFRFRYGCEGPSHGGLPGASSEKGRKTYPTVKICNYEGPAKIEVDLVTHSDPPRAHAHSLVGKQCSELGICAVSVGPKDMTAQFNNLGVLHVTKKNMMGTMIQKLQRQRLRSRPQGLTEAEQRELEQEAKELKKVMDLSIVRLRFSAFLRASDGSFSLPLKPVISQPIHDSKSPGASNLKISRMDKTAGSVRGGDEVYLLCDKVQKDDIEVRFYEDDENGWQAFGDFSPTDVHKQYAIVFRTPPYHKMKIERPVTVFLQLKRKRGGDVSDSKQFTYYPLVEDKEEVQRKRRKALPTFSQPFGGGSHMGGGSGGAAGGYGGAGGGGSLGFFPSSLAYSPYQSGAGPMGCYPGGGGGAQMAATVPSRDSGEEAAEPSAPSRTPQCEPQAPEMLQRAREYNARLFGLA
Chain of Nuclear factor NF-kappa-B complex (Q04206 whole entry): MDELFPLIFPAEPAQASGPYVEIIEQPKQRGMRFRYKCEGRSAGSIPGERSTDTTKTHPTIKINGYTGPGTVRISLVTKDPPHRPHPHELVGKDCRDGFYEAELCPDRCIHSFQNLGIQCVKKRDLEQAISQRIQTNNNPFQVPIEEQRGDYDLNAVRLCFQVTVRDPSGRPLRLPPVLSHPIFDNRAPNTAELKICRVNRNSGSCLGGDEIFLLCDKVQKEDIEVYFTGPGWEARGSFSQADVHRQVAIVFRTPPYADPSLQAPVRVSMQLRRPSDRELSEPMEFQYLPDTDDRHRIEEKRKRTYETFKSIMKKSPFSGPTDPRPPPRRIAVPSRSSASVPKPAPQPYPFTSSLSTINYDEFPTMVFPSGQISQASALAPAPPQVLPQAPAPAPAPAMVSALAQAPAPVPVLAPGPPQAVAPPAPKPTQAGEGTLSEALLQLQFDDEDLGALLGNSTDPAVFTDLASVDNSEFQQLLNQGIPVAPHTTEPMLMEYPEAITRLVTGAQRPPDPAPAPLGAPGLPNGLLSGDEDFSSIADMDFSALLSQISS
T1 sequence (P05412 whole entry): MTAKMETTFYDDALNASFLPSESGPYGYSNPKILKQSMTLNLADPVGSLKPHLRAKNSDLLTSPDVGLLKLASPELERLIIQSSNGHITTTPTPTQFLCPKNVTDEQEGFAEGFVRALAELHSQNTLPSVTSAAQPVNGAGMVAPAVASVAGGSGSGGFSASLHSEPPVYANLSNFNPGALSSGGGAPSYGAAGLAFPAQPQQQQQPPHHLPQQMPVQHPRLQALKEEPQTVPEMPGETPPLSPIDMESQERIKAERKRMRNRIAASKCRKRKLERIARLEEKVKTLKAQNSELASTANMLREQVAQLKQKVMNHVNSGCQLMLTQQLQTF
T1 sequence (P01100 whole entry): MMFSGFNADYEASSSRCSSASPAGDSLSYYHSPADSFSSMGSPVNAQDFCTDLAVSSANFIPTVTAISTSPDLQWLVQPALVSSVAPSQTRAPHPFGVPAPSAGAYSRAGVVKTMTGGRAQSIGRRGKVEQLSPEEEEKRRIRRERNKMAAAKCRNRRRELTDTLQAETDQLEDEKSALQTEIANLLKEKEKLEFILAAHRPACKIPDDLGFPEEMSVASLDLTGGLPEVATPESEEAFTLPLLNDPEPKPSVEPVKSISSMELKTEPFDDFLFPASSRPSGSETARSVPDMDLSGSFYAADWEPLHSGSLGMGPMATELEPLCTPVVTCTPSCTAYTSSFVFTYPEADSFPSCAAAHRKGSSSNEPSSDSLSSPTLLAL
T2 sequence (P05412 whole entry): as the sequence (P05412 whole entry) above
Chain of Transcription factor Jun (Rattus norvegicus, UniProt P17325) (P17325 whole entry): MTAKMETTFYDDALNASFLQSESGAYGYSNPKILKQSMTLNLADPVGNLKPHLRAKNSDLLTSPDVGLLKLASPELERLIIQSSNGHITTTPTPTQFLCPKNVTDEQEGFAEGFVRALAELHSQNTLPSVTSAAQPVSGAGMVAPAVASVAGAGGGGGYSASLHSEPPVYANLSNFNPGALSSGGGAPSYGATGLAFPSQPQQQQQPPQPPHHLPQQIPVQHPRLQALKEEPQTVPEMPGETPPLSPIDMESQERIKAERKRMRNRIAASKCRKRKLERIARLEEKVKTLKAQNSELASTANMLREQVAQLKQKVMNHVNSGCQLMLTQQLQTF

## COc1cccc(/C=C/C(=O)/C=C(O)/C=C/c2cccc(OC)c2)c1
Transcription factor AP1 [1]
  IC50: 5.4 µM

## CNc1nc(C)c(-c2nc3ccccc3c(=O)n2-c2ccc(Cl)cc2)s1
Transcription factor Jun [2]
  IC50: 1.2 µM

## Cc1ccccc1-n1c(-c2sc(Nc3ccccc3)nc2C)nc2ccccc2c1=O
Transcription factor Jun [2]
  IC50: 5.5 µM

## O=C(Nc1cc(Cl)cc(Cl)c1)c1cc(Cl)ccc1O
Transcription factor Jun [3]
  inhibition: 74.8%
Transcription factor Jun [4]
  inhibition: 22.7%

## Cc1ccc(/C=C/C(=O)/C=C(O)/C=C/c2ccc(C)cc2)cc1
Transcription factor AP1 [1]
  IC50: 8.98 µM

## O=C(Nc1cc(Cl)cc(Cl)c1)c1cc(I)ccc1O
Transcription factor Jun [3]
  inhibition: 75.4%

## CC1(C)CC[C@]2(C(=O)O)CC[C@]3(C)C(=CC[C@@H]4[C@@]5(C)CC[C@H](O[C@@H]6O[C@H](C(=O)O)[C@@H](O)[C@H](O[C@@H]7OC[C@H](O)[C@H](O)[C@H]7O)[C@H]6O)C(C)(C)[C@@H]5CC[C@]43C)[C@@H]2C1
Transcription factor AP1 [1]
  IC50: 130 µM

## O=C(O)CCc1cc(C(=O)c2ccc(OC3CCCC3)cc2O)ccc1OCc1ccc2c(O)noc2c1
Transcription factor Jun [5]
  IC50: 10 µM
Transcription factor Jun [6]
  IC50: 10 µM

## O=C(Nc1cc(C(F)(F)F)cc(C(F)(F)F)c1)c1cnc(Cl)nc1-c1ccccc1
Transcription factor Jun [7]
  IC50: 0.4 µM
[8]
  IC50: 0.4 µM

## Cc1nc(Nc2ccc(Cl)cc2)sc1-c1nc2ccccc2c(=O)n1-c1ccc(Cl)cc1
Transcription factor Jun [2]
  IC50: 1.2 µM

## CC[C@](C)(O)C(=O)O[C@H]1C(=O)O[C@@H]2C[C@H]3C(C)=CC(=O)[C@@H](O)[C@]3(C)[C@H]3[C@@]4(O)OC[C@]32[C@@H]1[C@@H](C)[C@H]4O [GLAUCARUBINONE]
Transcription factor Jun [9]
  EC50: 1.49 µM

## O=C(Nc1cc(C(F)(F)F)cc(C(F)(F)F)c1)c1cnc(Cl)nc1C(F)(F)F
Transcription factor Jun [7]
  IC50: 0.05 µM
[8]
  IC50: 0.05 µM

## O=C(Nc1cc(C(F)(F)F)cc(C(F)(F)F)c1)c1cc(Br)ccc1O
Transcription factor Jun [3]
  inhibition: 91.2%
Transcription factor Jun [4]
  inhibition: 48.4%

## COC(=O)C1=CO[C@@H](O[C@@H]2O[C@H](CO)[C@@H](O)[C@H](O)[C@H]2O)[C@H]2[C@@H]1[C@@H]1O[C@@H]1[C@]2(O)C(=O)O/C=C(\C(=O)O)c1ccc(O)c(OC)c1
Transcription factor Jun [10]
  IC50: 29 µM

## CC1=C(/C=C/C(=C/C=C/C(C)=C/C(=O)O)c2ccc(C)cc2)C(C)(C)CCC1
[11]
  EC50: > 1 µM
[12]
  EC50: > 1 µM
[13]
  EC50: > 1 µM
[14]
  EC50: > 1 µM

## O=C(Nc1cc(C(F)(F)F)cc(C(F)(F)F)c1)c1ccc(Cl)nn1
Transcription factor Jun [7]
  IC50: 1.7 µM
[8]
  IC50: 1.7 µM

## COc1cccc2nc(-c3cccs3)nc(NN3C(=O)C=C(C)C3=O)c12 [AS-602868]
Transcription factor Jun [7]
  IC50: 0.008 µM
Rattus norvegicus [15]
  inhibition (INH): 65%

## CCCc1c(C(=O)O)c(O)cc2c1C(=O)c1c(O)cccc1C2=O
Transcription factor Jun [16]
  IC50: 60 µM
Transcription factor Jun [17]
  IC50: 100 µM

## CC(=O)c1ccc(-n2c(-c3cc(-c4ccncc4)c(N4CCOCC4)s3)nc3ccccc3c2=O)cc1
Transcription factor Jun [2]
  IC50: 5 µM

## COc1cc(CC(C)C(C)Cc2ccc(O)c(OC)c2)ccc1O (centres undefined) [DIHYDROGUAIARETIC ACID]
Transcription factor AP1 [18]
  IC50: 0.21 µM

## CC(=O)N[C@H]1CSSC[C@@H](C(N)=O)NC(=O)CNC(=O)[C@H](CC(=O)O)NC(=O)[C@H](C)NC(=O)[C@H](CC(C)C)NC(=O)[C@H](CC(=O)O)NC(=O)[C@H](CC(C)C)NC(=O)[C@H](CCC(N)=O)NC(=O)CNC1=O (Ac-CGQLDLADGC-NH2; disulfide 1-10)
Transcription factor Jun [5]
  IC50: 64 µM

## O=C(Nc1cc(C(F)(F)F)cc(C(F)(F)F)c1)c1cnc(Cl)cn1
Transcription factor Jun [7]
  IC50: 4 µM
[8]
  IC50: 4 µM

## O=C(Nc1cc(C(F)(F)F)cc(C(F)(F)F)c1)c1cc(I)ccc1O
Transcription factor Jun [3]
  inhibition: 82.4%
Transcription factor Jun [4]
  inhibition: 25.4%

## CC(Cc1ccc(O)c(O)c1)C(C)Cc1ccc(O)c(O)c1 (centres undefined) [NORDIHYDROGUAIARETIC ACID]
Transcription factor AP1 [18]
  IC50: 0.0079 µM

## COc1cc(/C=C/C(=O)/C=C(O)/C=C/c2cc(OC)c(O)c([N+](=O)[O-])c2)cc([N+](=O)[O-])c1O
Gallus gallus
  inhibition (INH): 68%

## COC(=O)C1=CO[C@@H](O[C@@H]2O[C@H](CO)[C@@H](O)[C@H](O)[C@H]2O)[C@H]2[C@H]1C(C)=C[C@@]2(O)C(=O)O/C=C(\C(=O)O)c1ccc(O)c(OC)c1
Transcription factor Jun [10]
  IC50: 69.6 µM

## O=C(Nc1cc(Cl)cc(Cl)c1)c1cc(Br)ccc1O
Transcription factor Jun [3]
  inhibition: 83.8%
Transcription factor Jun [4]
  inhibition: 39.3%

## CNc1nc(-c2ccccc2)c(-c2nc3ccccc3c(=O)n2-c2ccccc2OC)s1
Rattus norvegicus [19]
  inhibition (INH): 56%
Transcription factor Jun [2]
  IC50: 0.5 µM

## O=C(Nc1cc(C(F)(F)F)cc(C(F)(F)F)c1)c1cc(Cl)ccc1O
Transcription factor Jun [3]
  inhibition: 89.1%
Transcription factor Jun [4]
  inhibition: 42.4%

## CNc1nc(C)c(-c2nc3ccccc3c(=O)n2-c2ccccc2C)s1
Transcription factor Jun [2]
  IC50: 5.5 µM

## C[C@H]1[C@H](C)CC[C@]2(COC(=O)c3ccccc3C(=O)O)CC[C@]3(C)C(=CC[C@@H]4[C@@]5(C)CC[C@H](OC(=O)c6ccccc6C(=O)O)C(C)(C)[C@@H]5CC[C@]43C)[C@H]12
Transcription factor AP1 [1]
  IC50: 4 µM

## CC(C)COc1ccc(C(=O)c2ccc(OCC(C)C)c(CCC(=O)O)c2)cc1
Transcription factor Jun [6]
  IC50: 5 µM

## COC1=C(C)[C@@H]2CC(=O)O[C@@H]3C[C@H]4[C@H](C)[C@@H](O)[C@H](O)C(=O)[C@]4(C)[C@@H](C1=O)[C@@]32C [NOTHOSPONDIN]
Transcription factor Jun [9]
  EC50: 0.13 µM
